Values after ≈ are worked out from the molar mass of the structure shown. Where two headings read alike, the source gives them in different places.
Assays:
Solubility in water = format: physicochemical; conditions: for solubility: water
[1] = Osmotic pressure and osmolality of solutions of identical iodine concentration (300 mg. Iodine/ml.); format: physicochemical; conditions: at 37° C.
Text: The novel compounds are distinguished from other compounds by a lower diffusibility on account of their size.
Concentration, Osmotic Pressure, and Osmolality of Solutions of Identical

[2] = Protein binding, human plasma (ultrafiltration method); format: in vitro ADME; conditions: human, plasma
Method: (§1) Binding of contrast media to proteins of human plasma was determined at a final plasma concentration of 1.2 mg. iodine/ml. using the ultrafiltration method. The novel, nonionic dimer E was bound only to a very minor extent of 1.4±2.4%.

[3] = background statement; cited from earlier work
erythrocytes = assay: Effect of the contrast media on erythrocyte morphology; conditions: 43 mg. Iodine/ml. Blood; score 0 (intact) to 5 (highest damage)
Method: Contrast medium solutions containing 300 mg. iodine/ml. were mixed in a ratio of 1:6 with heparinized blood. The final concentration of the contrast media was 43 mg. iodine/ml. The evaluation criterion was the change of the natural shape of the erythrocytes via echinocytes to spherocytes.

mice [4] = assay: Compatibility after intravenous injection in mice; format: in vivo
[5] = background statement; cited from earlier work; remark: listed apart in the source
mice [6] = assay: Compatibility after intravenous injection in mice; format: in vivo; conditions: for Mortality/survival after intravenous injection: 6-10 mice, 10 g. iodine/kg, 300 mg. iodine/ml., 0.8 ml./min.
Method: 1. Compatibility After Intravenous Injection
Each of 6-10 mice weighing 20-22 g. was injected intravenously with the contrast medium being tested in the form of a solution at a concentration of 300 mg. of iodine/ml., a dosage of 10 g. iodine/kg. and an injection rate of 0.8 ml./min. Ionic agents were given as meglumine salts.

rats = format: in vivo; conditions: 10 rats; 50 mg. iodine/ml.; 0.4 ml./kg.
Method: In a further evaluation according to Valzelli, "A Simple Method to Inject Drugs Intracerebrally;" Med. Exp. Vol. 11: 23-26, (1964), each of 10 rats (90-110 g.) were injected intracerebrally with contrast medium solutions of compounds A-E at an iodine concentration of 50 mg./ml. in a dosage of 0.4 ml./kg. Toxic effects of compounds A-D included grave anomalies in posture (attitude), torsional spasms, excitation, and death.

proteins of human plasma = assay: Protein binding, human plasma (ultrafiltration method); format: in vitro ADME; conditions: n = 6; 1.2 mg. Iodine/ml.; ultrafiltration
Method: as §1

[7] = n = 6, 1.2 mg. Iodine/ml., ultrafiltration, read-out: Protein Binding Human Plasma (converted)

Compound | Osmolality [1] [mOsm/kg . H2 O] | Osmotic Pressure [1] [at.] | fraction unbound [2, 7] | Effect on Erythrocyte Morphology, Damage Index (erythrocytes) | Compatibility After i.v. Injection in Mice, LD50 (mice [4]) [g. Iodine/kg.] | solubility (Solubility in water) [mg/mL] | also measured
CN(CC(O)CO)C(=O)c1c(I)c(C(=O)N(C)CC(O)CO)c(I)c(N(C)C(=O)CC(=O)N(C)c2c(I)c(C(=O)N(C)CC(O)CO)c(I)c(C(=O)N(C)CC(O)CO)c2I)c1I (stereo not drawn) [Example 9, Malonic Acid bis[3,5-bis(2,3-Dihydroxypropyl-N-methylcarbamoyl)-2,4,6-triiodo-N-methylanilide]] | 197 | 5.0 |  |  |  |  | Solubility in water (Solubility in water): more than 60 g./150 ml. of solution
CNC(=O)c1c(I)c(NC(=O)CCCCC(=O)Nc2c(I)c(C(=O)O)c(I)c(C(=O)NC)c2I)c(I)c(C(=O)O)c1I [Meglumine Iocarmate] | 1260 | 32.0 | 0.908 | 1.37 | 6.5 |  | Osmotic pressure, relative [3]: somewhat lower osmotic pressure; Resulting concentration in the urine [5]: relatively high resulting concentration in the urine
CN(CC(O)CO)C(=O)c1c(I)c(NC(=O)CCCCC(=O)Nc2c(I)c(C(=O)N(C)CC(O)CO)c(I)c(C(=O)N(C)CC(O)CO)c2I)c(I)c(C(=O)N(C)CC(O)CO)c1I (stereo not drawn) [Example 10, Adipic Acid bis[3,5-bis(2,3-Dihydroxypropyl-N-methylcarbamoyl)-2,4,6-triiodoanilide]] |  |  |  | 0.11 |  | 130 (≈ 82.5 mM) | Compatibility After i.v. Injection in Mice, LD50 (mice [6]; i.v., mice, determined with supersaturated solution): 30 g. Iodine/kg.; Solubility behaviour in words (Solubility in water): yields supersaturated solutions
CN(CC(O)CO)C(=O)c1c(I)c(NC(=O)C(=O)Nc2c(I)c(C(=O)N(C)CC(O)CO)c(I)c(C(=O)N(C)CC(O)CO)c2I)c(I)c(C(=O)N(C)CC(O)CO)c1I (stereo not drawn) [Example 1, oxalic acid bis[3,5-bis(2,3-dihydroxypropyl-N-methylcarbamoyl)-2,4,6-triiodoanilide]] | 175 | 4.5 | 0.986 | 0.33 | 20 |  | Toxic effects after intracerebral injection (rats): caused none of these effects in any of the animals; Protein Binding Human Plasma (proteins of human plasma): 1.4±2.4%; Mortality/survival after intravenous injection (mice [6]): All mice survived; solubility (Solubility in water; room temperature): > 600 mg/mL
CC(=O)Nc1c(I)c(C(=O)N[C@H]2C(O)O[C@H](CO)[C@@H](O)[C@@H]2O)c(I)c(N(C)C(C)=O)c1I (stereo partly drawn) [Metrizamide, 2-(3-acetamido-5-N-methylacetamido-2,4,6-triiodobenzamido)-2-deoxy-D-glucose] | 485 | 12.3 |  |  | 14 |  | fraction unbound [2]: 0.938; Mortality/survival after intravenous injection (mice [6]): one animal died
CC(=O)Nc1c(I)c(NC(C)=O)c(I)c(C(=O)O)c1I [Meglumine Amidotrizoate] | 1520 | 38.6 | 0.968 | 2.57 | 6.5 |  | 
CNC(=O)c1c(I)c(NC(C)=O)c(I)c(C(=O)O)c1I [Meglumine Iothalamate] | 1650 | 41.9 |  |  | 6.5 |  | fraction unbound [2]: 0.948
O=C(CCCCC(=O)Nc1c(I)c(C(=O)NC(CO)CO)c(I)c(C(=O)NC(CO)CO)c1I)Nc1c(I)c(C(=O)NC(CO)CO)c(I)c(C(=O)NC(CO)CO)c1I [Example 11, Adipic Acid bis[3,5-bis(1,3-Dihydroxyisopropylcarbamoyl)-2,4,6-triiodoanilide]] |  |  |  |  |  | < 1 | 
CN(CC(O)CO)C(=O)c1c(I)c(NC(=O)COCCOCC(=O)Nc2c(I)c(C(=O)N(C)CC(O)CO)c(I)c(C(=O)N(C)CC(O)CO)c2I)c(I)c(C(=O)N(C)CC(O)CO)c1I (stereo not drawn) [Example 12, 3,6-Dioxasuberic Acid bis[3,5-bis(2,3-Dihydroxypropyl-N-methylcarbamoyl)-2,4,6-triiodoanilide]] | 216 | 5.5 |  | 0.13 | 22 |  | 
CN(CC(O)CO)C(=O)c1c(I)c(C(=O)N(C)CC(O)CO)c(I)c(N(C)C(=O)COCC(=O)N(C)c2c(I)c(C(=O)N(C)CC(O)CO)c(I)c(C(=O)N(C)CC(O)CO)c2I)c1I (stereo not drawn) [Example 8, Oxaglutaric Acid bis[3,5-bis(2,3-Dihydroxypropyl-N-methylcarbamoyl)-2,4,6-triiodo-N-methylanilide]] |  |  |  | 0.09 | 10 | > 600 | 

— patent US4239747A, “Dicarboxylic acid bis(3,5-dicarbamoyl-2,4,6-triiodoanilides) useful as x-ray contrast agents” (Schering Aktiengesellschaft, priority 1976, dated 1980)
